Experimental data published in article PMC10247784, “Physiological activation of human and mouse bitter taste receptors by bile acids” (Communications Biology, 2023).

Biological target: T1, mouse Tas2r144 (Mus musculus, UniProt Q7TQB8)
T1 construct: expressed in transfected cells; host or cells: HEK293T-Gα16gust44
Assay: Calcium imaging assay (FLIPR), HEK293T-Gα16gust44 cells transfected with mouse Tas2r144
Format: cell-based
Description: This set of bile acids was chosen because of their commercial availability in high purities, their diversity within the class of bile acids and their previous detection and quantitation in human blood. Stock solutions were prepared in DMSO.
As basal growth medium for the HEK293T-Gα16gust44 cell line[17],[59] served Dulbecco’s modified eagle medium (DMEM) (Thermo Fisher Scientific, Darmstadt, Germany) supplemented with 10 % fetal bovine serum (Sigma-Aldrich, Steinheim, Germany), 2 mM L-glutamine (Sigma-Aldrich, Steinheim, Germany), 100 units/ml penicillin (Sigma Aldrich, Steinheim, Germany) and 100 µg/ml streptomycin (Sigma Aldrich, Steinheim, Germany). Growth conditions were 37 °C, 5 % CO2 and saturated air-humidity[60].
HEK293T-Gα16gust44 cells were seeded on poly-D-lysine (10 µg/ml) coated 96-well plates to reach a confluence of 40-60 % the next day. For transient transfection 150 ng of plasmid DNA containing the receptor of interest and 0.3 µl lipofectamine 2000 (Thermo Fisher Scientific, Darmstadt, Germany) per well were used and transfection took place according to the manual of lipofectamine 2000. […] The empty vector DNA (mock) was transfected as negative control[14],[41].
Cells were loaded using the calcium-sensitive fluorescent dye Fluo-4-AM (Abcam, Cambridge, Great Britain) in the presence of 2.5 mM probenecid (Sigma-Aldrich, Steinheim, Germany) the day after transfection[13],[41]. 1 h after loading, cells were washed with C1 buffer using a BioTek Cell Washer, incubated in the dark for half an hour and washed again. For automated agonist application and measurement of fluorescence changes, a FLIPR^TETRA device (Molecular Devices, San José, United States) was used. Viability of cells was tested by application of 100 nM Somatostatin 14 (Bachem, Bubendorf, Switzerland)[42].
Measured data were negative control corrected by subtracting the signal of the mock-transfected cells and exported to Microsoft Excel using the FLIPR software ScreenWorks 4.2. In Microsoft Excel software, standardization of maximum fluorescence intensities to the basal fluorescence and normalization to the buffer-only control was done to calculate the relative fluorescence changes (ΔF/F).
Initial screening experiments performed in duplicate wells were confirmed by at least one replication and representative traces were selected for display. All dose-response relationships were determined by three independent experiments (biological replicates) performed in duplicates (technical replicates). Threshold concentrations, defined as lowest substance concentrations leading to statistically significant elevated fluorescence changes in receptor-transfected cells compared with empty vector-transfected cells, were determined using SigmaPlot with Student’s t-test to evaluate statistical significance (p < 0.01).

T1 sequence (Q7TQB8 whole entry): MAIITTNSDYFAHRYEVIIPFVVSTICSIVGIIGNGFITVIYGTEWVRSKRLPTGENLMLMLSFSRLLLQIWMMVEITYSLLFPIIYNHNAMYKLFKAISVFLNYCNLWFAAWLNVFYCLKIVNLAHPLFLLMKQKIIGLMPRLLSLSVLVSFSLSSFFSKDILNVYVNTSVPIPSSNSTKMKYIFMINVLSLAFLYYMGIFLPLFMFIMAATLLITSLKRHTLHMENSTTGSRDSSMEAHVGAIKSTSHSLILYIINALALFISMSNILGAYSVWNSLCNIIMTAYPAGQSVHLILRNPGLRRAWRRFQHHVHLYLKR

C[C@H](CCC(=O)O)[C@H]1CC[C@H]2[C@@H]3[C@H](O)C[C@@H]4C[C@H](O)CC[C@]4(C)[C@H]3C[C@H](O)[C@]12C [Cholic Acid, cholic acid]
RLU (Time 0 s): 0 RLU | RLU (Time 2 s): 0.2042 RLU | RLU (Time 4 s): 5.384 RLU | RLU (Time 6 s): -45.6095 RLU | RLU (Time 8 s): 13.5839 RLU | RLU (Time 12 s): 34.8706 RLU | RLU (Time 14 s): 52.0817 RLU | RLU (Time 16 s): 11.4185 RLU | RLU (Time 18 s): 29.9569 RLU | RLU (Time 18.781 s): 46.048 RLU | RLU (Time 20.781 s): 112.965 RLU | RLU (Time 22.781 s): 165.689 RLU | RLU (Time 24.781 s): 205.772 RLU | RLU (Time 26.781 s): 242.163 RLU | RLU (Time 28.781 s): 320.656 RLU | RLU (Time 30.781 s): 367.762 RLU | RLU (Time 32.781 s): 422.903 RLU | RLU (Time 34.781 s): 499.119 RLU | RLU (Time 36.781 s): 524.9 RLU | RLU (Time 38.781 s): 565.569 RLU | RLU (Time 40.781 s): 583.905 RLU | RLU (Time 42.781 s): 606.644 RLU | RLU (Time 44.781 s): 633.066 RLU | RLU (Time 46.781 s): 639.921 RLU | RLU (Time 48.781 s): 638.534 RLU | RLU (Time 50.781 s): 641.518 RLU | RLU (Time 52.781 s): 632.385 RLU | RLU (Time 54.781 s): 644.317 RLU | RLU (Time 56.781 s): 655.573 RLU | RLU (Time 58.781 s): 678.513 RLU | RLU (Time 60.781 s): 666.775 RLU | RLU (Time 62.781 s): 667.745 RLU | RLU (Time 64.781 s): 637 RLU | RLU (Time 66.781 s): 647.88 RLU | RLU (Time 68.781 s): 635.725 RLU | RLU (Time 70.781 s): 644.081 RLU | RLU (Time 72.781 s): 655.408 RLU | RLU (Time 74.781 s): 647.263 RLU | RLU (Time 76.781 s): 633.033 RLU | RLU (Time 78.781 s): 631.561 RLU | RLU (Time 80.781 s): 620.522 RLU | RLU (Time 82.781 s): 627.467 RLU | RLU (Time 84.781 s): 627.103 RLU | RLU (Time 86.781 s): 578.642 RLU | RLU (Time 88.781 s): 568.631 RLU | RLU (Time 90.781 s): 548.759 RLU | RLU (Time 92.781 s): 576.256 RLU | RLU (Time 94.781 s): 543.082 RLU | RLU (Time 96.781 s): 562.136 RLU | RLU (Time 98.781 s): 521.114 RLU | RLU (Time 100.781 s): 533.293 RLU | RLU (Time 102.781 s): 509.746 RLU | RLU (Time 104.781 s): 492.298 RLU | RLU (Time 106.781 s): 485.694 RLU | RLU (Time 108.781 s): 481.982 RLU | RLU (Time 110.781 s): 458.143 RLU | RLU (Time 112.781 s): 439.768 RLU | RLU (Time 114.781 s): 433.077 RLU | RLU (Time 116.781 s): 415.823 RLU | RLU (Time 118.781 s): 408.859 RLU | RLU (Time 120.781 s): 392.039 RLU | RLU (Time 122.781 s): 431.314 RLU | RLU (Time 124.781 s): 392.828 RLU | RLU (Time 126.781 s): 373.554 RLU | RLU (Time 128.781 s): 347.376 RLU | RLU (Time 130.781 s): 337.354 RLU | RLU (Time 132.781 s): 314.537 RLU | RLU (Time 134.781 s): 326.444 RLU | RLU (Time 136.781 s): 292.52 RLU | RLU (Time 137.562 s): 313.513 RLU | RLU (Time 143.562 s): 250.659 RLU | RLU (Time 149.562 s): 229.584 RLU | RLU (Time 155.562 s): 203.982 RLU | RLU (Time 161.562 s): 211.817 RLU | RLU (Time 167.562 s): 206.485 RLU | RLU (Time 173.562 s): 171.281 RLU | RLU (Time 179.562 s): 153.445 RLU | RLU (Time 185.562 s): 144.359 RLU | RLU (Time 191.562 s): 143.458 RLU | RLU (Time 197.562 s): 135.182 RLU | RLU (Time 203.562 s): 115.034 RLU | RLU (Time 209.562 s): 107.877 RLU | RLU (Time 215.562 s): 83.8781 RLU | RLU (Time 221.562 s): 20.807 RLU | RLU (Time 227.562 s): 27.2515 RLU | RLU (Time 233.562 s): -2.456 RLU | RLU (Time 239.562 s): 17.5402 RLU | RLU (Time 245.562 s): -0.008323 RLU | RLU (Time 293.562 s): 2 RLU | RLU (Time 299.562 s): -5.681 RLU | RLU (Time 305.562 s): 20.6398 RLU | RLU (Time 311.562 s): 25.3808 RLU | RLU (Time 317.562 s): 16.3914 RLU | RLU (Time 323.562 s): 41.1546 RLU | RLU (Time 329.562 s): -2.456 RLU | RLU (Time 335.562 s): 34.2464 RLU | RLU (Time 341.562 s): 21.8644 RLU | RLU (Time 347.562 s): 15.2738 RLU | RLU (Time 353.562 s): 29.9395 RLU | RLU (Time 359.562 s): 27.2515 RLU | Activation threshold concentration Tas2r144 (p < 0.01 vs empty vector): 100 µM
